Assay results reported in PubChem BioAssay AID2060349 (Molecular Pharmacology Branch, DTP, NCI, 2025).
pIC50: −log10 of the molar value.

Test system: 762968-020-R-J2-PDC spheroids viability
Assay: Anticancer human tumor 762968-020-R-J2-PDC patient-derived colon carcinoma cell line growth inhibition [TAK]
Conditions: spheroids with HUVEC and MSC; for pIC50: curve of first compound; for viability, T/C: stronger effect = lower value
From the text: Combinatorial screen of targeted agents with TAK-243 and ipatasertib in multi-cell type tumor spheroids
A high-throughput screen of multi-cell type tumor spheroids was designed to identify active combinations of targeted small molecules and TAK-243 or ipatasertib. Complex spheroids include a stromal component modeled by human endothelial cells (HUVEC) and fibroblasts modeled by human mesenchymal stem cells (MSCs). The concentration ranges selected for each drug and investigational agent were based upon clinically achievable concentrations if the clinical Cmax of the agent was known.
Compounds. The drugs and investigational agents: TAK-243 (785004), ipatasertib (767898), everolimus (733504), selumetinib (741078), bortezomib (756655), trametinib (758246), ixazomib (758254), vemurafenib (761431), dabrafenib (764134), sapanisertib (764658), alpelisib (765974), and copanlisib (816437), were obtained from the National Cancer Institute (NCI) Developmental Therapeutics Program Chemical Repository. The FDA-approved anticancer drug set is available from the NCI Developmental Therapeutics Program. […] The stock solutions were prepared in dimethyl sulfoxide (DMSO, Sigma-Aldrich, St. Louis, MO, cat. D2650) at 800-fold the tested concentration and stored at -70 degrees C prior to their use. All drugs and investigational agents were tested over a range starting from a high concentration at or near the clinical Cmax and decreasing in half-log increments. If the clinical Cmax for an agent had not been determined, the highest concentration tested was 10 microM.
NCI60 Cell Culture. NCI60 cell lines were obtained from the NCI Developmental Therapeutics Program Tumor Repository. For each lot of cells, the Repository performed Applied Biosystems AmpFLSTR Identifiler testing with PCR amplification to confirm consistency with the published Identifier STR profile for each cell line. Cells were kept in continuous culture for no more than 20 passages. The optimal seeding densities for each of the cell lines at each time point assessed were determined prior to performing the concentration response studies. Briefly, the NCI60 human tumor lines were grown as monolayers in RPMI 1640 medium supplemented with 10% FBS and 2 mmol/L L-glutamine.
An additional 2 lines were from the NCI60 cell line panel including melanomas, MALME-3M and SK-MEL-2. Pooled donor human umbilical vein endothelial cells (HUVEC, Lonza, cat. CC-2519) and human mesenchymal stem cells (hMSC, Lonza, cat. PT-2501) were purchased from Lonza (Walkersville, MD).
PDMR cell lines were grown in complete medium (DC medium): Dulbecco's modified Eagle's medium (DMEM)/F12 supplemented with 5% fetal bovine serum (FBS), 2 mM L-glutamine, 100 U/mL penicillin and 100 µg/ml streptomycin, 0.4 µg/ml hydrocortisone, 10 ng/ml epidermal growth factor (EGF) recombinant human protein, 24 µg/mL adenine, and 0.1 mg/mL primocin. During culture from frozen stock vials, PDMR cells were cultured in the same medium containing 10 µM Y-27632 (see Table 3). The PDCs were cultured in complete DMEM/F12 media without 10 microM Y-27632 dihydrochloride for at least two passages prior to the screen. The pooled donor HUVEC and hMSC were cultured in endothelial cell growth medium 2 (PromoCell, Heidelberg, Germany, cat. C-22011) and mesenchymal stem cell growth medium 2 (PromoCell, cat. C-28009), respectively. For all experiments, HUVEC and hMSC were used at passages </=5.
For the pre-screen, cell seeding densities were determined from a titration spanning the range from 5,000 to 313 cells per well. The mct-spheroids including 60% malignant cells, 25% HUVEC and 15% MSC dispensed as a mixture into U-bottom Ultra-Low Attachment 384-well plates (Corning, NY)
High-throughput Drug Combination Screening.
Prior to their inoculation into 384-well plates, malignant cells, HUVEC, and hMSC were removed from T flasks using TrypLE express (Thermo Fisher Scientific, cat. 12605036) and harvested by centrifugation for 5 min at 233 x g. […]
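Note: spheroids exposed to drug for 7 days before readout.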
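Throughout, for viability, T/C: 100% = DMSO vehicle control wells.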

COC1CC2CCC(C)C(O)(O2)C(=O)C(=O)N2CCCCC2C(=O)OC(C(C)CC2CCC(OCCO)C(OC)C2)CC(=O)C(C)C=C(C)C(O)C(OC)C(=O)C(C)CC(C)C=CC=CC=C1C (stereo not given) + CC(C)NCC(C(=O)N1CCN(c2ncnc3c2C(C)CC3O)CC1)c1ccc(Cl)cc1
pIC50 (second compound 0.3 µM): < 7.00 | pIC50 (second compound 0.949 µM): < 7.00 | pIC50 (second compound 3 µM): < 7.00 | pIC50 (second compound 9.49 µM): < 7.00 | pIC50 (second compound 30 µM): < 7.00 | viability, T/C (second compound 0.3 µM, first compound 0.000316 µM): 102% | viability, T/C (second compound 0.3 µM, first compound 0.001 µM): 106% | viability, T/C (second compound 0.3 µM, first compound 0.00316 µM): 103% | viability, T/C (second compound 0.3 µM, first compound 0.01 µM): 103% | viability, T/C (second compound 0.3 µM, first compound 0.0316 µM): 103% | viability, T/C (second compound 0.3 µM, first compound 0.1 µM): 102% | viability, T/C (second compound 0.949 µM, first compound 0.000316 µM): 104% | viability, T/C (second compound 0.949 µM, first compound 0.001 µM): 104% | viability, T/C (second compound 0.949 µM, first compound 0.00316 µM): 111% | viability, T/C (second compound 0.949 µM, first compound 0.01 µM): 105% | viability, T/C (second compound 0.949 µM, first compound 0.0316 µM): 99.5% | viability, T/C (second compound 0.949 µM, first compound 0.1 µM): 92.3% | viability, T/C (second compound 3 µM, first compound 0.000316 µM): 107% | viability, T/C (second compound 3 µM, first compound 0.001 µM): 109% | viability, T/C (second compound 3 µM, first compound 0.00316 µM): 109% | viability, T/C (second compound 3 µM, first compound 0.01 µM): 105% | viability, T/C (second compound 3 µM, first compound 0.0316 µM): 95.1% | viability, T/C (second compound 3 µM, first compound 0.1 µM): 97.5% | viability, T/C (second compound 9.49 µM, first compound 0.000316 µM): 104% | viability, T/C (second compound 9.49 µM, first compound 0.001 µM): 105% | viability, T/C (second compound 9.49 µM, first compound 0.00316 µM): 95.5% | viability, T/C (second compound 9.49 µM, first compound 0.01 µM): 101% | viability, T/C (second compound 9.49 µM, first compound 0.0316 µM): 93.9% | viability, T/C (second compound 9.49 µM, first compound 0.1 µM): 100% | viability, T/C (second compound 30 µM, first compound 0.000316 µM): 92.2% | viability, T/C (second compound 30 µM, first compound 0.001 µM): 89% | viability, T/C (second compound 30 µM, first compound 0.00316 µM): 92.3% | viability, T/C (second compound 30 µM, first compound 0.01 µM): 86.4% | viability, T/C (second compound 30 µM, first compound 0.0316 µM): 92.2% | viability, T/C (second compound 30 µM, first compound 0.1 µM): 84.5%
